The values below come from paper PMC11097166, “Imidazole-Derived Alkyl and Aryl Ethers: Synthesis, Characterization, In Vitro Anticancer and Antioxidant Activities, Carbonic Anhydrase I–II Inhibition Properties, and In Silico Studies” (ACS Omega, 2024).

One series is described as follows: FRAP antioxidant assay. To be noted: trolox standard curve. The protocol:
The FRAP method was used to determine the antioxidant power of compounds. This method, which determines the reducing power of compounds, was developed by Benzie and Strain.[48] Fe(III)–TPTZ complex is formed as a result of the reaction of Fe(III) with tripyridyltriazine (TPTZ), and this complex is reduced to the Fe(II)–TPTZ complex with the antioxidant in the environment. The color of this complex is dark blue and gives the maximum absorbance at 593 nm.[48] Incubation is performed for up to 30 min to complete the reaction, and the correct absorbance values were read. The FRAP values of the samples were calculated as “μmol trolox equiv/g sample” with the help of the standard curve obtained using methanol–trolox standard solutions (0; 0.2; 0.4; 0.6; 0.8; and 1.0 μmol/mL) which were used as the positive control.[49] […]

The target in the next series is hCA I (Homo sapiens, UniProt P00915). The experiment in a line: CA esterase activity method, hCA I. Type of series: biochemical. Conditions: for Effect on hCA I isoenzyme activity: Table S3; for IC50: esterase activity, p-nitrophenyl acetate substrate. The text has this: (§1) The method used to spectrophotometrically detect the antiepileptic, antiglaucoma, and […] effects of the obtained compounds in vitro is the esterase activity method. This method relies on the esterase activity of CA for the hydrolysis of p-nitrophenyl acetate as a substrate, which is a part of the reaction mechanism involving p-nitrophenol or p-nitrophenolate.
hCA I, sequence (P00915 whole entry): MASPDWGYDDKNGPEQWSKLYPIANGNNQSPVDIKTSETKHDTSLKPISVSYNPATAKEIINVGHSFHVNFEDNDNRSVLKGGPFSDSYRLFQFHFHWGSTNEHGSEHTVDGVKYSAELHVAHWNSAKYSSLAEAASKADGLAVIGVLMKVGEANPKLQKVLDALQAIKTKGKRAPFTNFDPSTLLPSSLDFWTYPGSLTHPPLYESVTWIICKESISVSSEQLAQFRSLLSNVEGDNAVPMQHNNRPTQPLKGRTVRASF

The target of a further series is hCA II (Homo sapiens, UniProt P00918). The experiment in a line: CA esterase activity method, hCA II. Type of series: biochemical. Conditions: for Effect on hCA II isoenzyme activity: Table S3; for IC50: esterase activity, p-nitrophenyl acetate substrate.
From the text: as §1

Series [1] deals with C6 rat glial tumor cell line. The experiment in a line: MTT cell viability assay on C6. The format is cell-based. To be noted: 24 h incubation. The source says: (§2) 96-well plates were used for seeding cells. […] All compounds were run in three repetitions.
The test system of series [2] is HT29 colon cancer cell line. Nature of the series: MTT cell viability assay on HT29. The format is cell-based, human.
From the text: as §2
For orientation: Tetrazolium assays rely on reduction of a dye to a coloured formazan, in cell work by metabolically active cells.

For series [3], the system named is MCF7 human breast adenocarcinoma cell line. The experiment in a line: MTT cell viability assay on MCF7. The format is cell-based.
From the text: as §2

Series [4] is described as follows: MTT cell viability assay on L929. To be noted: mouse, L929 fibroblast cells.
Description: (§3) Human breast adenocarcinoma cell line (MCF7), rat glial tumor cell line (C6), healthy mouse fibroblast cell line (L929), and colon cancer (HT29) cell line were purchased from ATCC (American type culture collection) and studied.
(§4) The cytotoxic effects of all compounds by MTT analysis on L929, HT29, MCF7, and C6 cell lines were investigated. 96-well plates were used for seeding cells. Approximately 1 × 10^4 cells were seeded in each well. Cells were allowed to adhere for 24 h, and then the compounds were applied at different concentrations. All compounds were run in three repetitions. Wells with a maximum of 100 μM compounds were incubated for 24 h. Three wells without compounds treated with only DMSO (with total volume of % 0.5) were used as negative controls, and cisplatin was used as a positive control. […] After the MTT interaction, the FRAP wells were emptied, and DMSO solution was placed in them. The formazan crystals formed were dissolved with this solution, and the number of viable cells in each well was determined by color change.
In series [5] the test system is L929 mouse fibroblast cell line. The experiment in a line: MTT cell viability assay on L929. Conditions: for toxicity in L929 healthy cell line: 100 μM, 24 h, triplicate; for IC50: read-out: IC50 L929.
Description: as §3, §4
[6] abbreviates: Homo sapiens, HT-29, 24 h incubation.
The mark [7] stands for this setting: Homo sapiens, MCF7, 24 h incubation.

Read-outs that look alike come from different tables or passages of the source. Bounds are passed on as bounds.

In the series “FRAP antioxidant assay”, `CCOC(Cn1ccnc1)c1ccc(OC)cc1` (stereo not shown) [Compound 13, 1-(2-Ethoxy-2-(4-methoxyphenyl)ethyl)-1H-imidazole] gave an FRAP of 0.15 ± 0.06 μmol trolox equiv/g. For the same compound, the “Effect on hCA I isoenzyme activity” value at hCA I is recorded as “+”. In addition, the “Effect on hCA II isoenzyme activity” value on hCA II was “+”.

For the compound `C=CCOC(Cn1ccnc1)c1ccccc1` (stereo not shown) [Compound 9, 1-(2-(Allyloxy)-2-phenylethyl)-1H-imidazole], the FRAP in the series “FRAP antioxidant assay” came to 0.12 ± 0.01 μmol trolox equiv/g. Moreover, on hCA I, the “Effect on hCA I isoenzyme activity” value is on record as “+”. In addition, the “Effect on hCA II isoenzyme activity” value on hCA II is on record as “+”.

`c1ccc(COC(Cn2ccnc2)c2ccccc2)cc1` (stereo not shown) [Compound 16, 1-(2-(Benzyloxy)-2-phenylethyl)-1H-imidazole] displayed an FRAP in “FRAP antioxidant assay” of 0.41 ± 0.03 μmol trolox equiv/g. Also, at hCA I, the “Effect on hCA I isoenzyme activity” value is “+”. In addition, the “Effect on hCA II isoenzyme activity” value at hCA II is reported as “+”.

On to vitamin E [reference compound], for which the FRAP in “FRAP antioxidant assay” is reported as 1.00 ± 0.04 μmol trolox equiv/g.

The IC50 is the concentration needed to halve the response being measured. For orientation: viability means the share of living cells, or the viability signal relative to a control. Consider `OC(Cn1ccnc1)c1ccccc1` (stereo not shown) [Compound 4a, 2-(1H-Imidazol-1-yl)-1-phenylethanol], for which the IC50 in series [1] (Rattus norvegicus, 24 h) came to 35.2 ± 0.55 µM; in series [2] (setting [6]) it was 74.6 ± 6.67 µM; in series [3] (setting [7]), 104 ± 15.3 µM; in series [5] (Mus musculus, L929, 24 h), 166 ± 11.9 µM. The compound further registered an FRAP in “FRAP antioxidant assay” of 0.31 ± 0.01 μmol trolox equiv/g. On hCA I, the “Effect on hCA I isoenzyme activity” value is listed as “+”. Further, the “Effect on hCA II isoenzyme activity” value on hCA II is reported as “+”. The viability at 24 h, 100 μM in series [4] is no less than 50%. For the same compound, the “toxicity in L929 healthy cell line” value in [5] (MTT) is given as “not toxic”.

In the case of `C=CCOC(Cn1ccnc1)c1ccc(Cl)cc1` (stereo not shown) [Compound 12, 1-(2-(Allyloxy)-2-(4-chlorophenyl)ethyl)-1H-imidazole], the FRAP in the series “FRAP antioxidant assay” is given as 0.28 ± 0.04 μmol trolox equiv/g. Also, at hCA I, the “Effect on hCA I isoenzyme activity” value is “+”. Further, on hCA II, the “Effect on hCA II isoenzyme activity” value is “+”.

For the compound `N.N.[Cl][Pt][Cl]` [cisplatin, reference compound], the 50% inhibitory concentration (IC50) in series [1] was found to be 88.2 ± 12.1 µM; in series [2] (24 h incubation), 68.2 ± 3.39 µM; in series [3] (24 h incubation), 26.8 ± 11 µM; in series [5] (24 h incubation, MTT) it was 277.7 ± 1.09 µM.

For the compound `CCOC(Cn1ccnc1)c1ccc(Cl)cc1` (stereo not shown) [Compound 10, 1-(2-(4-Chlorophenyl)-2-ethoxyethyl)-1H-imidazole], the FRAP in “FRAP antioxidant assay” was found to be 0.20 ± 0.03 μmol trolox equiv/g. For the same compound, the “Effect on hCA I isoenzyme activity” value at hCA I is recorded as “+”. Moreover, at hCA II, the “Effect on hCA II isoenzyme activity” value was “+”.

For the compound `COc1ccc(C(Cn2ccnc2)OCc2ccccc2)cc1` (stereo not shown) [Compound 22, 1-(2-(Benzyloxy)-2-(4-methoxyphenyl)ethyl)-1H-imidazole], in the series “FRAP antioxidant assay”, the FRAP is listed as 0.40 ± 0.05 μmol trolox equiv/g.

The compound `CCCOC(Cn1ccnc1)c1ccccc1` (stereo not shown) [Compound 8, 1-(2-Phenyl-2-propoxyethyl)-1H-imidazole] returned an FRAP in “FRAP antioxidant assay” of 0.19 ± 0.02 μmol trolox equiv/g. In addition, the “Effect on hCA I isoenzyme activity” value at hCA I is given as “+”. Also, at hCA II, the “Effect on hCA II isoenzyme activity” value is given as “+”.

In turn, `C=CCOC(Cn1ccnc1)c1ccc(OC)cc1` (stereo not shown) [Compound 15, 1-(2-(Allyloxy)-2-(4-methoxyphenyl)ethyl)-1H-imidazole] had an FRAP in “FRAP antioxidant assay” of 0.31 ± 0.03 μmol trolox equiv/g. Besides, the “Effect on hCA I isoenzyme activity” value on hCA I was “+”. Moreover, the “Effect on hCA II isoenzyme activity” value at hCA II is “+”.

As to `OC(Cn1ccnc1)c1ccc(Cl)cc1` (stereo not shown) [Compound 4b, 1-(4-Chlorophenyl)-2-(1H-imidazol-1-yl)ethanol], the IC50 in series [1] (Rattus norvegicus, 24 h) was 20.1 ± 0.32 µM; in series [2] (setting [6]), 44.1 ± 4.27 µM; in series [3] (setting [7]) it was 84.9 ± 21.5 µM; in series [5] (Mus musculus, L929, 24 h) it was 105 ± 10.1 µM. For the same compound, the FRAP in the series “FRAP antioxidant assay” amounted to 0.25 ± 0.02 μmol trolox equiv/g. The “Effect on hCA I isoenzyme activity” value on hCA I is reported as “+”. In addition, the “Effect on hCA II isoenzyme activity” value on hCA II is on record as “+”. Moreover, the viability at 24 h, 100 μM in [4] is no less than 50%. The “toxicity in L929 healthy cell line” value in [5] (MTT) is reported as “not toxic”.

`Cc1ccc(COC(Cn2ccnc2)c2ccc(Cl)cc2)cc1` (stereo not shown) [Compound 21, 1-(2-(4-Chlorophenyl)-2-((4-methylbenzyl)oxy)ethyl)-1H-imidazole]: the FRAP in the series “FRAP antioxidant assay” is 0.25 ± 0.01 μmol trolox equiv/g. In addition, the results for the IC50 against hCA I and on hCA II were 0.00983 µM and 0.0079 µM, respectively.

Consider `COc1ccc(C(=O)Cn2ccnc2)cc1` [Compound 3c, 2-(1H-Imidazol-1-yl)-1-(4-methoxyphenyl)ethanone], for which, in “FRAP antioxidant assay”, the FRAP was 0.21 ± 0.03 μmol trolox equiv/g. Besides, the “Effect on hCA I isoenzyme activity” value on hCA I was “-”. Further, on hCA II, the “Effect on hCA II isoenzyme activity” value is given as “-”.

For the compound `CCCOC(Cn1ccnc1)c1ccc(Cl)cc1` (stereo not shown) [Compound 11, 1-(2-(4-Chlorophenyl)-2-propoxyethyl)-1H-imidazole], the FRAP in the series “FRAP antioxidant assay” is reported as 0.31 ± 0.07 μmol trolox equiv/g. At hCA I, the “Effect on hCA I isoenzyme activity” value is “+”. Also, the “Effect on hCA II isoenzyme activity” value on hCA II is “+”.

In the case of `COc1ccc(C(Cn2ccnc2)OCc2ccc(C)cc2)cc1` (stereo not shown) [Compound 24, 1-(2-(4-Methoxyphenyl)-2-((4-methylbenzyl)oxy)ethyl)-1H-imidazole], the FRAP in the series “FRAP antioxidant assay” is recorded as 0.46 ± 0.06 μmol trolox equiv/g. Also, the figures for the IC50 against hCA I and against hCA II were 0.00477 µM and 0.00966 µM, respectively.

Regarding `Clc1ccc(C(Cn2ccnc2)OCc2ccccc2)cc1` (stereo not shown) [Compound 19, 1-(2-(Benzyloxy)-2-(4-chlorophenyl)ethyl)-1H-imidazole], in the series “FRAP antioxidant assay”, the FRAP was 0.27 ± 0.01 μmol trolox equiv/g. Also, the IC50 turned out to be 0.0157 µM against hCA I and 0.0117 µM at hCA II.

`Clc1ccc(COC(Cn2ccnc2)c2ccccc2)cc1` (stereo not shown) [Compound 17, 1-(2-((4-Chlorobenzyl)oxy)-2-phenylethyl)-1H-imidazole] registered an FRAP in “FRAP antioxidant assay” of 0.35 ± 0.07 μmol trolox equiv/g. The IC50 was 0.0132 µM on hCA I and 0.0148 µM against hCA II.

With `CCCOC(Cn1ccnc1)c1ccc(OC)cc1` (stereo not shown) [Compound 14, 1-(2-(4-Methoxyphenyl)-2-propoxyethyl)-1H-imidazole], the FRAP in “FRAP antioxidant assay” amounted to 0.28 ± 0.01 μmol trolox equiv/g. The “Effect on hCA I isoenzyme activity” value on hCA I is “+”. On hCA II, the “Effect on hCA II isoenzyme activity” value is on record as “+”.

What is called melting point is the temperature of the solid-liquid transition. Regarding `COc1ccc(C(Cn2ccnc2)OCc2ccc(Cl)cc2)cc1` (stereo not shown) [Compound 23, 1-(2-((4-Chlorobenzyl)oxy)-2-(4-methoxyphenyl)ethyl)-1H-imidazole], the melting point was in the range of 104 to 105 °C. The compound further yielded an FRAP in the series “FRAP antioxidant assay” of 0.45 ± 0.04 μmol trolox equiv/g. At hCA I, this compound showed an IC50 of 0.00749 µM. For the same compound, inhibition on hCA II was half-maximal at 0.00565 µM (IC50).

`Cc1ccc(COC(Cn2ccnc2)c2ccccc2)cc1` (stereo not shown) [Compound 18, 1-(2-((4-Methylbenzyl)oxy)-2-phenylethyl)-1H-imidazole] yielded an FRAP in “FRAP antioxidant assay” of 0.30 ± 0.04 μmol trolox equiv/g. The “Effect on hCA I isoenzyme activity” value at hCA I is given as “+”. Moreover, at hCA II, the “Effect on hCA II isoenzyme activity” value is recorded as “+”.

In the case of `CCOC(Cn1ccnc1)c1ccccc1` (stereo not shown) [Compound 7, 1-(2-Ethoxy-2-phenylethyl)-1H-imidazole], the IC50 amounted to 26.1 ± 5.7 µM in [1] (Rattus norvegicus, 24 h); 102 ± 11.5 µM in series [2] (setting [6]); 122 ± 28.8 µM in series [3] (setting [7]); 173 ± 16.6 µM in series [5] (Mus musculus, L929, 24 h). This compound had an FRAP in “FRAP antioxidant assay” of 0.10 ± 0.08 μmol trolox equiv/g. In addition, the “Effect on hCA I isoenzyme activity” value at hCA I was “+”. For the same compound, at hCA II, the “Effect on hCA II isoenzyme activity” value is “+”. Moreover, in series [4], the viability at 24 h, 100 μM was no less than 50%. Also, the “toxicity in L929 healthy cell line” value in [5] (MTT) is “not toxic”.

As for `Clc1ccc(COC(Cn2ccnc2)c2ccc(Cl)cc2)cc1` (stereo not shown) [Compound 20, 1-(2-((4-Chlorobenzyl)oxy)-2-(4-chlorophenyl)ethyl)-1H-imidazole], in the series “FRAP antioxidant assay”, the FRAP amounted to 0.31 ± 0.06 μmol trolox equiv/g. In addition, the IC50 against hCA I worked out at 0.00413 µM; at hCA II it was 0.0109 µM.
